Here are results for one substance from patent US7541331B2, “Surfactant treatment regimen” (Discovery Laboratories, Inc., priority 2005, dated 2009).

The subject of this series is premature neonates. The series is described as follows: Pilot phase 2 open study of lucinactant delivered as an aerosol via nCPAP for prevention of RDS. As to conditions: in vivo. As to the method: This example provides a protocol for administration of lucinactant as an aerosol via nCPA to premature infants. This protocol has been used in a pilot phase 2, open study to evaluate the feasibility, safety, and tolerability of lucinactant delivered as an aerosol via nCPAP for the prevention of RDS in premature neonates.
Lucinactant was administered using an approved vibrating machine device (Aeroneb-Pro® or equivalent) and delivered via nCPAP within 30 minutes of birth. In a first treatment group, 20 mg/ml of lucinactant was administered within the first 30 minutes of life continually over three hours. Up to three retreatments were permitted over a 48 hour period, with each treatment separated by at least 3 hours (from end of previous treatment). In a second treatment group, 20 mg/ml of lucinactant was administered within the first 30 minutes of life continually over three hours. Up to three retreatments were permitted over a 48 hour period, with each treatment separated by at least one hours (from end of previous treatment).
Qualified premature neonates were sequentially enrolled and stratified by gestational age (stratum 1:30-32 completed weeks followed by stratum 2:28-29 completed weeks) into the first treatment regimen group (3 hours on aerosol treatment/3 hours off aerosol treatment) and received aerosolized lucinactant via nCPAP. Safety and tolerability data were evaluated after enrollment of every five neonates. Once enrollment in the first treatment group was completed, neonates were sequentially enrolled and stratified into the second treatment group (3 hours on aerosol treatment/1 hours off aerosol treatment). All neonates enrolled were evaluated through 28 days of age.

Consider lucinactant, for which the “adverse effects considered related to both study drug and the device” value is recorded as 35.3%; the “adverse effects considered related to study drug” value is reported as 47.1%; the “adverse effects considered related to the device” value is 11.8%; the incidence of apnea was 94.1%. Besides, the incidence of hypocalcemia is reported as 29.4%; the “incidence of oxygen saturation decreased” value stood at 70.6%; the “incidence of patent ductus arteriosus” value amounted to 35.3%; the “safety and tolerability of treatment” value is “generally safe and well tolerated”. Besides, the “serious adverse effects considered related to the device” value was “Two”, the “total adverse effects reported” value is 83 and the “total serious adverse effects reported” value was found to be 5.
